# Results from patent publication US20060019284A1, “Identification of polynucleotides for predicting activity of compounds that interact with and/or modulate protein tyrosine kinases and/or protein tyrosine kinase pathways in lung cancer cells” (priority 2004, published 2006).
# What was measured:
# NCI-H596 lung cell line = assay: In vitro cytotoxicity assay (MTS), IC50 determination; type: cell-based, human; conditions: NCI-H596 cells
# Procedure: (§1) Cytotoxicity was assessed in cells by the MTS (3-(4,5-dimethylthiazol-2-yl)-5-(3-carboxy-methoxyphenyl)-2-(4-sulphenyl)-2H-tetrazolium, inner salt) assay (T. L. Riss et al., 1992, Mol. Biol. Cell, 3 (Suppl.): 184a).
# (§2) To carry out the assays, the lung cells were plated at 4,000 cells/well in 96 well microtiter plates, and 24 hours later, serially diluted drugs were added. The concentration range for the protein tyrosine kinase inhibitor compound BMS-A used in the cytotoxicity assay was from 5 μg/ml to 0.0016 μg/ml (roughly 10 μM to 0.0032 μM).
# (§3) The cells were incubated at 37° C. for 72 hours at which time the tetrazolium dye, MTS (333 μg/ml final concentration), in combination with the electron coupling agent phenazine methosulfate (25 μM final concentration), was added. A dehydrogenase enzyme in live cells reduces the MTS to a form that absorbs light and can be quantified spectrophotometrically at 492 nM. The greater the absorbency the greater the number of live cells. The results are expressed as an IC50, which is the drug concentration required to inhibit cell proliferation (i.e. absorbance at 492 nm) to 50% of that of untreated control cells. The mean IC50 and standard deviation (SD) from multiple tests for each cell line were calculated.
# (§4) The mean IC50 of the BMS-A protein tyrosine kinase inhibitor compound across the 23 human lund cell lines was calculated. […]
# A549 cells = assay: Drug (BMS-A) treatment of A549 cells and expression profiling (HG-U133 arrays); type: cell-based, human; conditions: A549, 0.4 μM, 4 and 24 hours
# Procedure: To identify polynucleotides regulated by a protein tyrosine kinase inhibitor compound, e.g., BMS-A, a lung cell line A549 was treated with or without the BMS-A compound (0.4 μM) in 0.1% DMSO for 4 and 24 hours. Expression profiling was performed, and the data were analyzed using GeneChip® Expression Analysis software MAS 5.0 (Affymetrix, Santa Clara, Calif.). The polynucleotide expression of a cell line treated with drug was compared using pair-wise analysis to the polynucleotide expression of the cell line without drug treatment. A change in p-value was calculated, indicating an increase, decrease or no change in polynucleotide expression. When the p-value was less than 0.0025, the change was considered significant. Duplicated experiments were performed, and analysis of 4 cross comparisons were performed.
# The lung cells were grown under standard cell culture conditions: RPMI 1640 supplemented to contain 10% fetal bovine serum, 100 IU/ml penicillin, […] streptomycin, 2 mM L-glutamine and 10 mM Hepes (all from GibcoBRL, Rockville, Md.). RNA was isolated from the cultured cells, either treated or untreated with drug (i.e., the protein tyrosine kinase inhibitor compound) at 50-70% confluence using the RNeasy™ kits commercially available from Qiagen, Valencia, Calif. The quality of the RNA was assessed by measuring the 28s:18s ribosomal RNA ratio using an Agilent 2100 bioanalyzer (Agilent Technologies, Rockville, Md.). The concentration of total RNA was determined spectrophotometrically. 10 μg of total RNA from each cell line was used to prepare biotinylated probe according to the Affymetrix Genechip® Expression Analysis Technical Manual, 2001. Targets were hybridized to Affymetrix high density oligonucleotide array human HG-U133 set chips (Affymetrix, Santa Clara, Calif.). The arrays were then washed and stained using the GeneChip® Fluidics station according to the manufacture's instructions (Affymetrix Genechip® Technical Manual, 2001). The HG-U133 set contains 2 Genechip® arrays, which contain approximately 45,000 probe sets representing more than 39,000 transcripts derived from approximately 33,000 well-substantiated human polynucleotides.
# A549 cells were seeded in a 10 cm^2 culture plate in cell culture medium as described herein and were cultured for 24 hours at 37° C. The medium was then changed to medium containing drug (0.4 μM BMS-A compound in 0.1% DMSO, Sigma); the cells were incubated for 4 hour or 24 hours, and then lysed for RNA isolation. The expression profiling was performed as described above and data were analyzed using GeneChip® Expression Analysis software MAS 5.0 (Affymetrix, Santa Clara, Calif.). The expression data of a drug treated cell line was compared pair-wise to data from the same cell line untreated with drug. A change in p-value was calculated, indicating an increase, decrease or no change in polynucleotide expression. When the p-value was less than 0.0025, the change was considered to be significant. This analysis was performed for duplicated experiments
# [1] = test system: panel of twenty-three human lung cell lines; assay: In vitro cytotoxicity assay (MTS), whole panel; type: cell-based; conditions: across the 23 lung cell lines
# Procedure: as §1, §2, §3, §4
# L2987 lung cell line = assay: In vitro cytotoxicity assay (MTS), IC50 determination; type: cell-based, human; conditions: L2987 cells
# Procedure: as §1, §2, §3, §4
# H838 lung cell line = assay: as above; type: cell-based, human; conditions: H838 cells
# Procedure: as §1, §2, §3, §4
# SW1271 lung cell line = assay: as above; type: cell-based, human; conditions: SW1271 cells
# Procedure: as §1, §2, §3, §4
# H2347 lung cell line = assay: as above; type: cell-based, human; conditions: H2347 cells, 72 hours, mean of 4 tests, read-out: Mean IC50 (uM) to BMS-A
# Procedure: as §1, §2, §3, §4
# H1155 lung cell line = assay: as above; type: cell-based, human; conditions: H1155 cells, 72 hours, mean of 3 tests, read-out: Mean IC50 (uM) to BMS-A
# Procedure: as §1, §2, §3, §4
# H226 lung cell line = assay: as above; type: cell-based, human; conditions: H226 cells
# Procedure: as §1, §2, §3, §4
# H522 lung cell line = assay: as above; type: cell-based, human; conditions: H522 cells
# Procedure: as §1, §2, §3, §4
# SK-MES-1 lung cell line = assay: as above; conditions: SK-MES-1 cells
# Procedure: as §1, §2, §3, §4
# Sk-LU-1 lung cell line = assay: as above; type: cell-based, human; conditions: Sk-LU-1 cells
# Procedure: as §1, §2, §3, §4
# SW900 lung cell line = assay: as above; type: cell-based, human; conditions: SW900 cells
# Procedure: as §1, §2, §3, §4
# H441 lung cell line = assay: as above; type: cell-based, human; conditions: H441 cells
# Procedure: as §1, §2, §3, §4
# H23 lung cell line = assay: as above; type: cell-based, human; conditions: H23 cells, 72 hours, mean of 4 tests, read-out: Mean IC50 (uM) to BMS-A
# Procedure: as §1, §2, §3, §4
# H661 lung cell line = assay: as above; type: cell-based, human; conditions: H661 cells
# Procedure: as §1, §2, §3, §4
# [2] = MTS, 72 hours, mean of 2 tests, read-out: Mean IC50 (uM) to BMS-A
# [3] = IC50 relative to mean IC50 of all 23 cell lines
# [4] = MTS, 72 hours, mean of 4 tests, read-out: Mean IC50 (uM) to BMS-A
# [5] = MTS, 72 hours, mean of 3 tests, read-out: Mean IC50 (uM) to BMS-A
compound,measurement,setting,value
"Cc1nc(Nc2ncc(C(=O)Nc3c(C)cccc3Cl)s2)cc(N2CCN(CCO)CC2)n1 [BMS-A, N-(2-chloro-6-methylphenyl)-2-[[6-[4-(2-hydroxyethyl)-1-piperazinyl]-2-methyl-4-pyrimidinyl]amino]-5-thiazolecarboxamide]",IC50,NCI-H596 lung cell line; [2],0.124 µM
same,Classification,NCI-H596 lung cell line; [3],Sensitive (cell lines having an IC50 below the mean IC50 were defined as sensitive to the compound)
same,Modulated by BMS-A,A549 cells; Gene No. 12 peroxisomal biogenesis factor 6 (NM_000287),Yes
same,Modulated by BMS-A,"A549 cells; Gene No. 24 cysteine-rich, angiogenic inducer, 61 (NM_001554)",Yes
same,Modulated by BMS-A,A549 cells; Gene No. 26 fibroblast growth factor 2 (basic) (NM_002006),Yes
same,Modulated by BMS-A,A549 cells; Gene No. 35 polymerase I and transcript release factor (NM_012232),Yes
same,Modulated by BMS-A,"A549 cells; Gene No. 39 ESTs, Weakly similar to hypothetical protein FLJ20489 (AI004009)",Yes
same,Modulated by BMS-A,A549 cells; Gene No. 45 Rho GDP dissociation inhibitor (GDI) beta (NM_001175),Yes
same,Modulated by BMS-A,A549 cells; Gene No. 47 FOS-like antigen 1 (NM_005438),Yes
same,Modulated by BMS-A,"A549 cells; Gene No. 58 collagen, type VI, alpha 1 (NM_001848)",Yes
same,Modulated by BMS-A,A549 cells; Gene No. 64 KIAA1237 protein (AI148659),Yes
same,Modulated by BMS-A,"A549 cells; Gene No. 69 a disintegrin-like and metalloprotease (reprolysin type) with thrombospondin type 1 motif, 1 (NM_006988)",Yes
same,Modulated by BMS-A,A549 cells; Gene No. 72 serum-inducible kinase (NM_006622),Yes
same,Modulated by BMS-A,A549 cells; Gene No. 90 hypothetical protein FLJ20607 (NM_017899),Yes
same,Modulated by BMS-A,A549 cells; Gene No. 98 germ cell specific Y-box binding protein (NM_015982),Yes
same,Modulated by BMS-A,A549 cells; Gene No. 105 J domain containing protein 1 (NM_021800),Yes
same,Modulated by BMS-A,"A549 cells; Gene No. 110 inhibitor of DNA binding 2, dominant negative helix-loop-helix protein (NM_002166)",Yes
same,Modulated by BMS-A,A549 cells; Gene No. 115 neuronal cell adhesion molecule (NM_005010),Yes
same,variation in the IC50 values among the twenty-three lung cell lines,[1],> 100 fold
same,IC50,L2987 lung cell line; [4],0.037 µM
same,Classification,L2987 lung cell line; [3],Sensitive (cell lines having an IC50 below the mean IC50 were defined as sensitive to the compound)
same,IC50,H838 lung cell line; [4],0.072 µM
same,Classification,H838 lung cell line; [3],Sensitive (cell lines having an IC50 below the mean IC50 were defined as sensitive to the compound)
same,IC50,SW1271 lung cell line; [2],0.242 µM
same,Classification,SW1271 lung cell line; [3],Sensitive (cell lines having an IC50 below the mean IC50 were defined as sensitive to the compound)
same,IC50,H2347 lung cell line,≥ 1.02 µM
same,IC50,H1155 lung cell line,≥ 1.02 µM
same,IC50,H226 lung cell line; [5],0.058 µM
same,Classification,H226 lung cell line; [3],Sensitive (cell lines having an IC50 below the mean IC50 were defined as sensitive to the compound)
same,IC50,H522 lung cell line; [5],0.215 µM
same,Classification,H522 lung cell line; [3],Sensitive (cell lines having an IC50 below the mean IC50 were defined as sensitive to the compound)
same,Classification,SK-MES-1 lung cell line; [3],Sensitive (cell lines having an IC50 below the mean IC50 were defined as sensitive to the compound)
same,IC50,"SK-MES-1 lung cell line; read-out: Mean IC50 (uM) to BMS-A, MTS, 72 hours, mean of 3 tests",0.151 µM
same,IC50,Sk-LU-1 lung cell line; [4],0.014 µM
same,Classification,Sk-LU-1 lung cell line; [3],Sensitive (cell lines having an IC50 below the mean IC50 were defined as sensitive to the compound)
same,IC50,SW900 lung cell line; [5],0.507 µM
same,Classification,SW900 lung cell line; [3],Sensitive (cell lines having an IC50 below the mean IC50 were defined as sensitive to the compound)
same,IC50,H441 lung cell line; [4],0.141 µM
same,Classification,H441 lung cell line; [3],Sensitive (cell lines having an IC50 below the mean IC50 were defined as sensitive to the compound)
same,IC50,H23 lung cell line,≥ 1.02 µM
same,IC50,H661 lung cell line; [4],0.123 µM
same,Classification,H661 lung cell line; [3],Sensitive (cell lines having an IC50 below the mean IC50 were defined as sensitive to the compound)
